From patent US8618303B2, “Pyrrolidine derivatives” (Hoffmann-La Roche Inc., priority 2011, dated 2013)
pKi: −log10 of the molar value. Like-named read-outs stand apart in the source and are kept apart here.

Target: human NK3 receptor (Homo sapiens (Human), UniProt P29371)
Assay: [3H]SR142801 competition binding assay
Conditions: for Ki: membranes from HEK293 cells transiently expressing recombinant human NK3 receptor, [3H]SR142801, Ki from IC50 by Cheng-Prussoff, read-out: Ki (uM) hNK3
Procedure: hNK3 receptor binding experiment were performed using [^3H]SR142801 (Catalog No. TRK1035, specific activity: 74.0 Ci/mmol, Amersham, GE Healthcare UK limited, Buckinghamshire, UK) and membrane isolated from HEK293 cells transiently expressing recombinant human NK3 receptor. After thawing, the membrane homogenates were centrifuged at 48,000×g for 10 min at 4° C., the pellets were resuspended in the 50 mM Tris-HCl, 4 mM MnCl2, 1 μM phosphoramidon, 0.1% BSA binding buffer at pH 7.4 to a final assay concentration of 5 μg protein/well. […] At the end of the incubation, membranes were filtered onto unitfilter (96-well white microplate with bonded GF/C filter preincubated 1 h in 0.3% PEI+0.3% BSA, Packard BioScience, Meriden, Conn.) with a Filtermate 196 harvester (Packard BioScience) and washed 4 times with ice-cold 50 mM Tris-HCl, pH 7.4 buffer. Nonspecific binding was measured in the presence of 10μM SB222200 for both radioligands. The radioactivity on the filter was counted (5 min) on a Packard Top-count microplate scintillation counter with quenching correction after addition of 45 μl of microscint 40 (Canberra Packard S.A., Ziirich, Switzerland) and shaking for 1 h. Inhibition curves were fitted according to the Hill equation: y=100/(1+(x/IC50), where nH=slope factor using Excel-fit 4 software (Microsoft). IC50 values were derived from the inhibition curve and the affinity constant (Ki) values were calculated using the Cheng-Prussoff equation Ki =IC50/(1+[L]/KD) where [L] is the concentration of radioligand and KD is its dissociation constant at the receptor, derived from the saturation isotherm. All experiments were performed in duplicate and the mean±standard error (SEM) of the individual Ki values was calculated.

Chain of human NK3 receptor (P29371 whole entry): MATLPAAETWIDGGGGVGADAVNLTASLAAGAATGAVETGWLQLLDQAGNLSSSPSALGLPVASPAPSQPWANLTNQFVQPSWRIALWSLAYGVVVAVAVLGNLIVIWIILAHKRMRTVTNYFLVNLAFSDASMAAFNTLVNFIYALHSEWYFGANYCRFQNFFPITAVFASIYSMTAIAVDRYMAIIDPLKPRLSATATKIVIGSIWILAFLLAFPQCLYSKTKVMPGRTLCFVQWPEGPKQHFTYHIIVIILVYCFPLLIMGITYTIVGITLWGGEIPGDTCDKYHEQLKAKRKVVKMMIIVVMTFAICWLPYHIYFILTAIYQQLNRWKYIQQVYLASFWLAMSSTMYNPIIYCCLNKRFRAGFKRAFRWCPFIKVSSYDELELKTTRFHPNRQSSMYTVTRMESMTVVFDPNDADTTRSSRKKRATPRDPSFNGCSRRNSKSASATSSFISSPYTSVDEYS

| Compound | Ki | pKi |
| --- | --- | --- |
| COc1ccc(N2CCC(C(=O)N3C[C@H](c4ccc(Cl)cc4)[C@@](C)(N(C)C(=O)Oc4ccc(F)cc4)C3)CC2)nn1 (racemic) [Example 19, rac-{(3R,4S)-4-(4-Chloro-phenyl)-1-[1-(6-methoxy-pyridazin-3-yl)-piperidine-4-carbonyl]-3-methyl-pyrrolidin-3-yl}-methyl-carbamic acid 4-fluoro-phenyl ester] | 0.0129 µM | – |
| CN(C(=O)Oc1ccc(F)cc1)[C@@]1(C)CN(C(=O)c2ccc(N3CCCCC3=O)cc2)C[C@@H]1c1ccc(Cl)cc1 (racemic) [Example 20, rac-{(3R,4S)-4-(4-Chloro-phenyl)-3-methyl-1-[4-(2-oxo-piperidin-1-yl)-benzoyl]-pyrrolidin-3-yl}-methyl-carbamic acid 4-fluoro-phenyl ester] | 0.276 µM | – |
| CN(C(=O)Oc1ccc(F)cc1)[C@@H]1CN(C(=O)C2CCN(C(=O)C3(C)CC3)CC2)C[C@@]1(C)c1ccc(Cl)cc1 (racemic) [Example 21, rac-{(3S,4R)-4-(4-Chloro-phenyl)-4-methyl-1-[1-(1-methyl-cyclopropanecarbonyl)-piperidine-4-carbonyl]-pyrrolidin-3-yl}-methyl-carbamic acid 4-fluoro-phenyl ester] | – | 7.50 |
| CN(C(=O)Oc1ccc(F)cc1)[C@@H]1CN(C(=O)C2CCN(c3ccc(C#N)cc3)CC2)C[C@@]1(C)c1ccc(Cl)cc1 (racemic) [Example 22, rac-{(3S,4R)-4-(4-Chloro-phenyl)-1-[1-(4-cyano-phenyl)-piperidine-4-carbonyl]-4-methyl-pyrrolidin-3-yl}-methyl-carbamic acid 4-fluoro-phenyl ester] | – | 7.98 |
| CN(C(=O)Oc1ccc(F)cc1)[C@@H]1CN(C(=O)C2CCN(c3ccc(F)cn3)CC2)C[C@@]1(C)c1ccc(Cl)cc1 (racemic) [Example 23, rac-[(3S,4R)-4-(4-Chloro-phenyl)-1-(5′-fluoro-3,4,5,6-tetrahydro-2H-[1,2′]bipyridinyl-4-carbonyl)-4-methyl-pyrrolidin-3-yl]-methyl-carbamic acid 4-fluoro-phenyl ester] | – | 7.36 |
| CC(C)C(=O)N1CCC(C(=O)N2C[C@@H](N(C)C(=O)Oc3ccc(F)cc3)[C@](C)(c3ccc(Cl)cc3)C2)CC1 (racemic) [Example 24, rac-[(3S,4R)-4-(4-Chloro-phenyl)-1-(1-isobutyryl-piperidine-4-carbonyl)-4-methyl-pyrrolidin-3-yl]-methyl-carbamic acid 4-fluoro-phenyl ester] | 0.0392 µM | – |
| CN(C(=O)Oc1ccc(F)cc1)[C@@H]1CN(C(=O)c2ccc(C#N)cc2)C[C@@]1(C)c1ccc(Cl)cc1 (racemic) [Example 26, rac-[(3S,4R)-4-(4-Chloro-phenyl)-1-(4-cyano-benzoyl)-4-methyl-pyrrolidin-3-yl]-methyl-carbamic acid 4-fluoro-phenyl ester] | 0.629 µM | – |
| CC(=O)N1CCC(C(=O)N2C[C@@H](N(C)C(=O)Oc3ccc(F)cc3)[C@](C)(c3ccc(Cl)cc3)C2)CC1 (racemic) [Example 27, rac-[(3S,4R)-1-(1-Acetyl-piperidine-4-carbonyl)-4-(4-chloro-phenyl)-4-methyl-pyrrolidin-3-yl]-methyl-carbamic acid 4-fluoro-phenyl ester] | 0.051 µM | – |
| CN(C(=O)Oc1ccc(F)cc1)[C@@H]1CN(C(=O)C2CCOCC2)C[C@@]1(C)c1ccc(Cl)cc1 (racemic) [Example 28, rac-[(3S,4R)-4-(4-Chloro-phenyl)-4-methyl-1-(tetrahydro-pyran-4-carbonyl)-pyrrolidin-3-yl]-methyl-carbamic acid 4-fluoro-phenyl ester] | 0.348 µM | – |
| Cc1ccc(N2CCC(C(=O)N3C[C@@H](N(C)C(=O)Oc4ccc(F)cc4)[C@](C)(c4ccc(Cl)cc4)C3)CC2)nc1 (racemic) [Example 29, rac-[(3S,4R)-4-(4-Chloro-phenyl)-4-methyl-1-(5′-methyl-3,4,5,6-tetrahydro-2H-[1,2′]bipyridinyl-4-carbonyl)-pyrrolidin-3-yl]-methyl-carbamic acid 4-fluoro-phenyl ester] | 0.0245 µM | – |
